The text below walks through data of patent US6916789B2, “Peyer's patch and/or M-cell targeting ligands” (Merrion Research I Limited, priority 2001, dated 2005).

Series [1] concerns Caco-2 homogenates. Put plainly: Synthetic peptide ELISA-based binding to Caco-2 homogenates (streptavidin-peroxidase detection). Also noted: species or system human. The following applies: for binder category / binding to epithelium: ELISA, intestinal epithelial tissue, FIGS. 17A-17B Caco-2 homogenates; for Binding Assay results (Caco-2), category / Binding Assay results (Caco-2), Kd: Tables 9 and 10; for peptide binding: biotin-tagged peptides, Example 5. How it is done:
In order to prepare the Caco-2 cell membrane and cytosolic fractions, confluent Caco-2 cell monolayers (grown in 75 cm^2 flasks for up to 1 week at 37° C. and 5% CO2) were washed twice in Dulbecco's PBS (DPBS). The cell monolayers were then treated with 10 mM EDTA-DPBS for 5-10 minutes at 37° C. and the cells were harvested by centrifugation at 1000 rpm for 5 minutes. The cells were then washed 3×in DPBS. The cell pellet was resuspended in 3 volumes of ice-cold HED buffer (20 mM HEPES (pH 7.67), 1 mM EGTA, 0,5 mM dithiothreitol, 1 mM phenylmethylsuphonyl fluoride (PMSF)) and the cells were allowed to swell for 5 minutes on ice. The cells were then homogenized for 30 seconds. The cell homogenates were then centrifuged in hard walled tubes at 40,000 rpm for 45 minutes at 4° C. (ultracentrifuge Ti90 rotor). The supernatant was removed and the pellet resuspended in HEDG buffer (20 mM HEPES (pH 7.67), 1 mM EGTA, 0.5 mM dithiothreithol, 100 mM NaCl, 10% glycerol, 1 mM PMSF). Three volumes of buffer were then added and the pellet was resuspended and centrifuged again at 1000 rpm for 2 minutes. The supernatant was removed and stored on ice. The procedure was repeated adding the second supernatant to the first and then the procedure was repeated 2-3 more times. The protein concentration was determined using the Bio-Rad protein assay. All fractions were stored at −80° C.
(§1) Peptide sequences (SEQ ID NOs: 3, 4, 5, 7, 8, 9, 10, 11, 14, 15, 16, 17, 19, 20, 26, 28, 29, 30) were synthesized with biotin tags at the amino terminal for all peptides and additionally at the carboxyl terminal for SEQ ID NOs:8 and 14. Binding of these peptides to Caco-2 homogenates and/or to rat intestinal tissue homogenates was tested in an ELISA-based assay with streptavidin-peroxidase detection. […] (See FIGS. 13A-13N).
Background: In an ELISA, binding on a coated surface is turned into a signal by an enzyme label.

The test system of series [2] is rat intestinal tissue homogenates. Put plainly: Synthetic peptide ELISA-based binding to rat intestinal tissue homogenates. The following applies: biotin-tagged peptides; Example 5. As to the method: The rat tissue homogenates were prepared by harvesting rat GI and Peyer's patch and storing them on ice until needed, or 1-2 hours. The tissue was then put into homogenization buffer (250 mM Sucrose, 12 mM Tris, 16 mM EDTA) with protease inhibitor cocktail. A hand-held homogenizer was used to break up the tissue for 3-4 minutes. The contents of the homogenizer were then transferred to microfuge tubes and spun at 1500 rpm for 1 minute. The supernatant was taken off and measured for protein content using the Bio-Rad Assay. Specificity studies were then run to allow differentiation between Peyer's patch specific and non-specific binding properties. The 55 high-binding clones were assayed for binding to rat small intestinal homogenates (i.e., homogenate membrane fractions) with and without Peyer's Patch tissue (i.e., tissue homogenate membrane fractions) present. (See FIGS. 6 and 7). The negative control was M13 mp18 with no peptide insert.
as §1

Series [3] deals with intestinal tissue of different species namely dog, mouse, pig, and rat. Nature of the series: Peptide binding to intestinal tissue of different species. Particulars: biotin-tagged peptides. As to the method:
(§2) Peptide sequences (SEQ ID NOs:3, 7, 8, 9 and 14) were synthesized with biotin tags at the amino terminal for all peptides and additionally at the carboxyl terminal for SEQ ID NOs:8 and 14. Binding of these peptides to intestinal tissue of different species namely dog, mouse, pig, and rat was performed. […] (See FIGS. 14A-14H). Binding of peptides (SEQ ID NOs:8 and 14) to rat tissue from different organs, namely liver, lung, mesenteric lymph nodes, spleen and kidney, was performed. […] (See FIGS. 15A-15E).

Series [4] concerns rat tissue from different organs, namely liver, lung, mesenteric lymph nodes, spleen and kidney. Nature of the series: Peptide binding to rat tissue from different organs. As to the method: as §2
Series [5] concerns human Peyer's patch tissue sections. Put plainly: Biotinylated peptide binding to human Peyer's patch tissue sections (streptavidin-HRP/DAB staining). The following applies: biotinylated peptide at 50 μg/ml; for binding to human Peyer's patch: 1 hour. As to the method: Three synthetic peptides (SEQ ID NO:8, 25 and 14) derived from isolated clones were biotinylated and tested for binding to human Peyer's patch tissue sections. In addition, a known negative binding peptide was included as a negative control. Paraffin sections of human Peyer's patch were deparaffinized and […]. The sections were rinsed in PBS. The antigenic determinants on the tissue were unmasked by microwaving in 2.1 g/L acetic acid for 5 minutes and allowed to cool at room temperature for 20 minutes while covered in plastic wrap. After 20 minutes, the sections were washed in PBS and then blocked in endogenous peroxidase in 1% hydrogen peroxide in methanol for 10 minutes. The rinse was repeated and the sections were blocked with 2% BSA in PBS for 20 minutes at room temperature. The sections were incubated with peptide at 50 μg/ml in […] in PBS for 1 hour at room temperature. Control tissue was treated with BSA alone. The sections were rinsed with 0.05% Tween in PBS. Streptavidin-HRP at 1/500 in 2% BSA was added for 30-60 minutes at room temperature. Again, the sections were rinsed with PBS/Tween. DAB substrate was added for up to 5 minutes, and the reaction was stopped by immersing the slides in water. The sections were counterstained using Haematoxlin for 50 seconds and then rinsed in water. The slides were differentiated in 1% acid alcohol for 5-10 seconds and then rinsed in water. The slides were mounted using aqueous mounting medium and a cover slip.

The test system of series [6] is intestinal epithelial tissue. Nature of the series: Cysteine binding studies: co-incubation with free L-cysteine. Particulars: L-cysteine 100 mM to 0.003 mM; peptide 6.25-25 μg/ml. How it is done: FIG. 16A is a graph of the binding of SEQ ID NO:8 at a concentration of 25 μg/ml to intestinal epithelial tissue in the presence of varying concentrations of free L-cysteine as a function of absorbance at 650 nm.
Peptide SEQ ID NO:8, at a concentration of 6.25 μg/ml, 12.5 μg/ml and 25 μg/ml, was co-incubated with L-cysteine over the concentration range of 100 mM to 0.003 mM. Peptide SEQ ID NO:25, at a concentration of 6.25 μg/ml was co-incubated with L-cysteine over the concentration range of 100 mM to 0.003 mM.

For series [7], the system named is Caco-2 homogenates. Put plainly: Peptide coated particles ELISA-based binding to Caco-2 homogenates. Also noted: species or system human. The following applies: for binding of peptide coated particles: peptide adsorbed to streptavidin particles (0.289 μm). How it is done:
Several phage-derived peptides (SEQ ID NOs: 25, 31, 32, 33, and 40) were adsorbed to streptavidin particles (0.289 μm). Peptide coated particles were tested in an ELISA-based assay for binding to Caco-2 homogenates. […] In addition, when one double-mutant peptide ligand (SEQ ID NO:33), is adsorbed to polystyrene particles binding that is approximately 60% of that of the parent peptide is observed (See FIGS. 19A-19B).

Where no end group is shown, it is not given here. [ ]: non-standard residue; d: D form.

For the substance “LETTCASLCYPS (polypeptide ligand) [SEQ ID NO:8]”, in the series with Caco-2 homogenates [1], the “effect of biotin tag at amino or carboxyl end on binding affinities” value is on record as “No differences”; the “binder category / binding to epithelium” value was “medium binder”; the “Binding Assay results (Caco-2), category” value was “Medium binder”; the “peptide binding” value is given as “High binding”. The “peptide binding” value in series [2] was “High binding”. In addition, the “differences in binding profiles to tissue of different species” value (“differences … of different species” for short) in series [3] was “No major differences”. Besides, the “differences in binding profiles to tissues of different organs” value in series [4] is reported as “No major differences”. Moreover, in series [5], the staining localisation entry is listed as “positive staining on the apical side of human enterocytes” and the “binding to human Peyer's patch” value was “Positive binding”. For the same substance, the “effect of free L-cysteine on peptide binding” value in series [6] is reported as “prevented binding”.

For “LETTCASLCYPS [8 biotinylated derivative]”, on Caco-2 homogenates [1], the “Binding Assay results (Caco-2), Kd” value is reported as “(Kd˜8 μg/ml)” and the “Binding Assay results (Caco-2), category” value is reported as “Medium binder”.

For the substance “VPPHPMTYSCQY [25 biotinylated derivative]”, at Caco-2 homogenates [1], the “Binding Assay results (Caco-2), Kd” value is listed as “(Kd < 5 μg/ml)” and the “Binding Assay results (Caco-2), category” value is “High binder”.

Regarding “spyclsacttel ([dS][dP][dY][dC][dL][dS][dA][dC][dT][dT][dE][dL]; cysteine pairing not given here) [SEQ ID NO:35]”, at Caco-2 homogenates [1], the “Binding Assay results (Caco-2), Kd” value is listed as “(Kd˜13.91 μg/ml)” and the “Binding Assay results (Caco-2), category” value is reported as “Medium binder”.

As for “vpphpmtyscqy ([dV][dP][dP][dH][dP][dM][dT][dY][dS][dC][dQ][dY]) [SEQ ID NO:37]”, in the series with Caco-2 homogenates [1], the “binder category / binding to epithelium” value is “retained high binding” and the “Binding Assay results (Caco-2), Kd” value was “(Kd˜10 μg/ml)”.

For the substance “LETTCASLCYPS [8 dansyl-lysine derivative]”, on Caco-2 homogenates [1], the “Binding Assay results (Caco-2), Kd” value is given as “(Kd˜1 μg/ml)” and the “Binding Assay results (Caco-2), category” value was “High binder”.

On to “LGTDWHSVSYTL (polypeptide ligand) [SEQ ID NO:9]”, for which, in series [3], the “differences … of different species” value is “No major differences”.

On to “VPPHPMTYSCQY (polypeptide ligand) [SEQ ID NO:25]”, for which, in the series with Caco-2 homogenates [1], the “binder category / binding to epithelium” value is on record as “highest binder” and the “peptide binding” value is recorded as “High binding”. In series [2], the “peptide binding” value is “High binding”. Also, in series [5], the staining localisation entry is given as “positive staining on the apical side of human enterocytes” and the “binding to human Peyer's patch” value is “Positive binding”. For the same substance, the “effect of free L-cysteine on peptide binding” value in series [6] is listed as “prevented binding”. Also, in the series on Caco-2 homogenates [7], the “binding of peptide coated particles” value is “Binding was retained”.

“KPAYTHEYRWLA (polypeptide ligand) [SEQ ID NO:7]”: the “differences … of different species” value in series [3] was “No major differences”.

Regarding “VCSNMYFSCRLS (polypeptide ligand) [SEQ ID NO:24]”, in the series on Caco-2 homogenates [1], the “binder category / binding to epithelium” value was “medium binder” and the “peptide binding” value is recorded as “High binding”. Further, the “peptide binding” value in series [2] is reported as “High binding”.

“lettcaslcyps ([dL][dE][dT][dT][dC][dA][dS][dL][dC][dY][dP][dS]; cysteine pairing not given here) [SEQ ID NO:36]”: the “Binding Assay results (Caco-2), Kd” value on Caco-2 homogenates [1] is “(Kd˜30.53 μg/ml)”.

“LETTAASLAYPS (polypeptide ligand) [SEQ ID NO:33]”: in the series on Caco-2 homogenates [1], the “binder category / binding to epithelium” value was “binding to the epithelium is abrogated” and the “Binding Assay results (Caco-2), category” value was “No binding”. For the same substance, the “binding relative to that of the parent peptide” value in the series on Caco-2 homogenates [7] (peptide adsorbed to polystyrene particles) is given as “approximately 60%”. Moreover, the “binding of peptide coated particles” value with Caco-2 homogenates [7] was “Binding was retained”.

Take “DYDSLSWRSTLH (polypeptide ligand) [SEQ ID NO:3]”: the “peptide binding” value (in the series with Caco-2 homogenates [1]; in series [2]) was “High binding” each time. Also, in series [3], the “differences … of different species” value is on record as “No major differences”.

As for “DYDSLSWRSTLHGGHESSH (polypeptide ligand) [SEQ ID NO:43]”, the “effect of added Zinc-binding motif (HESSH) on binding” value in the series with Caco-2 homogenates [1] (compared with SEQ ID NO:3) is “Enhanced binding”.

Take “NTRIPEPIRFYM (polypeptide ligand) [SEQ ID NO:14]”: the “binder category / binding to epithelium” value with Caco-2 homogenates [1] is “low to medium binder”. In series [3], the “differences … of different species” value is reported as “No major differences”. In series [4], the “differences in binding profiles to tissues of different organs” value was “No major differences”. Further, the “binding to human Peyer's patch” value in series [5] is reported as “negative for binding”.

Turning to “VPPHPMTYSCQY [25 Dansyl-lysine derivative]”, the “Binding Assay results (Caco-2), Kd” value at Caco-2 homogenates [1] was “(Kd < 1 μg/ml)”.

Regarding LETTAASLCYPS [SEQ ID NO:31], in the series on Caco-2 homogenates [1], the “binder category / binding to epithelium” value was “binding is still retained”; the “Binding Assay results (Caco-2), Kd” value is “(Kd˜9 μg/ml)”; the “Binding Assay results (Caco-2), category” value is recorded as “Medium binder”. Moreover, the “binding of peptide coated particles” value in the series with Caco-2 homogenates [7] is on record as “Binding was retained”.

LETTCASLAYPS [SEQ ID NO:32]: in the series on Caco-2 homogenates [1], the “binder category / binding to epithelium” value is recorded as “binding is still retained”; the “Binding Assay results (Caco-2), Kd” value is recorded as “(Kd˜8 μg/ml)”; the “Binding Assay results (Caco-2), category” value is recorded as “Medium binder”. The “binding of peptide coated particles” value in the series with Caco-2 homogenates [7] is “Binding was retained”.

For “VPPHPMTYSAQY (polypeptide ligand) [SEQ ID NO:38]”, in the series on Caco-2 homogenates [1], the “binder category / binding to epithelium” value is on record as “binding to the epithelium is abrogated” and the “Binding Assay results (Caco-2), category” value is “No binding”.

As for “LETTSASLSYPS (polypeptide ligand) [SEQ ID NO:34]”, in the series with Caco-2 homogenates [1], the “Binding Assay results (Caco-2), category” value is listed as “No binding”.

In the case of “VPPHPMTYSSQY (polypeptide ligand) [SEQ ID NO:39]”, the “Binding Assay results (Caco-2), category” value in the series on Caco-2 homogenates [1] is given as “No binding”.
